Source: patent US6964766B1, “Peptides for use in immunotherapy of autoimmune diseases” (Akzo Nobel N.V., priority 1998, dated 2005)
Values joined by “and” are separate entries in the source; they are usually repeats but may differ in a detail not shown here. Identical values can stand only once. “Also recorded” adds a separate entry of the source. No end group written: not given here.

Key:
PBMC from RA patients [1] = test: recognition by PBMC ([3H]thymidine incorporation, stimulation index); format: cell-based, human; conditions: Table 3b, per donor (169, 455, 447, 327)
Balb/c mice = conditions: single injection in the chest region, μg amounts of protein in IFA; cited from earlier work
PBMC from RA patients [2] = test: recognition by PBMC ([3H]thymidine incorporation, stimulation index); format: cell-based, human
Description: Peripheral blood mononuclear cells (PBMC) were isolated from heparinized peripheral blood by standard centrifugation on Ficoll-Paque (Pharmacia, Uppsala, Sweden). Cells were suspended in wells of a 24 well plate in a concentration of 5×10^5 cells per ml. Cells were incubated in medium alone or in the presence of 10 or 50 μg/ml peptide antigen (YKL-39 (266-278)). Cultures were incubated for 6 days at 37° C. in a humidified atmosphere of 5% CO2. Cells were then suspended and 100 or 150 μl volumes of medium was distributed in 4-fold in wells of a 96-well roundbottomed plate. Cells were then pulsed with 0.5 μCi (1.85×10^4 Bq) [3H]thymidine ([3H]TdR) and 18 hr later incorporated radioactivity was measured. Results as shown in table 3 are expressed as stimulation indices (SI) (antigen-specific counts/background counts).

[3] = system: HLA-DRB1*0401-restricted hybridomas specific for HC gp-39 (263-275) (8B12, 14G11, 20H5); test: stimulation of HC gp-39 (263-275)-specific T-cell hybridomas (IL-2 production); format: cell-based, mouse; conditions: presented by DRB1*0401 EBV-transformed B cells, 48 hr
Description: To test the cross reactivity of the 3 different, HC gp39-specific hybridoma cell lines with the YKL-39 or the chitotriosidase peptide, 5×10^4 hybridoma cells and 2×10^5 irradiated (12000 RAD), EBV-transformed B cells carrying the DRB1*0401 specificity were incubated in 150 μl volumes in wells of a round-bottomed microtiter plate. Peptide antigen (HC gp-39 (263-275), YKL-39 (266-278), chitotriosidase (269-282) or a control peptide) was added in 50 μl volumes to duplicate wells. Forty-eight hr later 100 μl of the culture supernatant was assayed for IL-2 production using a sandwich ELISA with Pharmingen antibodies specific for mouse IL-2.

[4] = system: HC gp-39 (263-275) induced DTH response; test: HC gp-39 (263-275)-specific DTH assay, tolerance induction by nasal application; format: in vivo, Balb/c mice; conditions: for tolerance: intranasal pretreatment 50, 10 or 2 micrograms, sensibilisation and challenge with HC gp-39 (263-275)
From the text: FIG. 2a, 2b, 2c In vivo tolerization with HC gp-39 (263-275) or YKL-39 ([…]) • Balb/c mice were tolerized by intranasal application of 50, 10 or 2 micrograms of HC gp-39 (263-275), SEQ ID NO: 3, (FIG. 2b) or YKL-39 (266-278) (FIG. 2c) followed by immunization with HC gp-39 (263-275). Mice that were pretreated with saline or that were left untreated were included as controls (FIG. 2a).
A HC gp-39 (263-275)-specific DTH assay suitable to monitor tolerance induction with peptide antigens was developed. […] This peptide-based DTH system was used to detect modulation of the DTH response by nasal application of HC gp-39 (263-275) peptide.

[5] = molecular target: T1, HLA-DRB1*0401-encoded molecules (Homo sapiens, UniProt P01903+P01911, A100K/A169T/F76Y/I96L/K127E/L162R/M171V/N62H/P40V/Q125Y/R42H/S133A/S149N/S66Y/V115G/V209L/W38E); test: competition peptide HLA-DR binding assay
T1 construct: HLA-DR4 (DRB1*0401) molecules were purified from the homozygous EBV-transformed human B lymphoblastoid cell lines Huly138IC2; endogenous in cells; host or cells: homozygous EBV-transformed human B lymphoblastoid cell line Huly138IC2

| Substance | SI 10 μg/ml (PBMC from RA patients [1]; 10 μg/ml antigen) | SI 50 μg/ml (PBMC from RA patients [1]; 50 μg/ml antigen) | arthritogenicity (Balb/c mice) | recognition by PBMC (in words) (PBMC from RA patients [2]; RA patients) | SI 10 μg/ml (PBMC from RA patients [2]; Table 3a, per donor (RA patients), 10 μg/ml peptide, 6 days, SI = antigen-specific counts/background counts) | SI 50 μg/ml (PBMC from RA patients [2]; Table 3a, per donor (RA patients), 50 μg/ml peptide, 6 days) | SI 10 μg/ml (PBMC from RA patients [2]; Table 3b, per donor (169, 455, 447, 327), 10 μg/ml antigen) | SI 50 μg/ml (PBMC from RA patients [2]; Table 3b, per donor (169, 455, 447, 327), 50 μg/ml antigen) | responder / non-responder (PBMC from RA patients [2]; per donor, RA patients, SI >= 5 regarded positive) | activation of T-cell hybridomas, IL-2 production (in words) [3] | tolerance [4] | tolerance ([4]; listed as YKL-39 266-278) | downmodulation of the DTH response (in words) ([4]; nasal application, Balb/c mice immunised with HC gp-39 (263-275) in IFA) | binding affinity to DRB1*0401 (in words) [5] |
| --- | --- | --- | --- | --- | --- | --- | --- | --- | --- | --- | --- | --- | --- | --- |
| HC gp-39: human cartilage glycoprotein-39, a protein of 362 amino acids, target autoantigen in rheumatoid arthritis | 1 and 12 and 24 and 45 | 1 and 19 and 44 and 95 | induced a chronic joint inflammation |  |  |  |  |  |  |  |  |  |  |  |
| HSFTLASAETTVG [YKL-39 (266-278), HSFTLASAETTVG] |  |  |  | readily recognized | 9 and 15 and <2 (3×) and 4 and 3 (2×) and 19 | 9 and 4 and <2 (4×) and 27 and 25 and 58 | 1 and 6 and 27 and 20 | 2 and 5 and 32 and 35 | R (R = responder); also recorded: NR (NR = non-responder) | response similar to HC gp-39 (263-275) | yes | effective as a tolerogen | more enhanced downmodulation | very high affinity |
